In US7491794B2, “Macrocyclic compounds as inhibitors of viral replication” (Intermune, Inc., priority 2003, dated 2009):
Like-named read-outs stand apart in the source and are kept apart here.

Assays:
NS3-NS4A protease = target: T1, NS3-NS4A protease (Hepatitis C virus genotype 1a, UniProt P27958); assay: NS3-NS4A protease assay (NS3 inhibition assay, RETS1 substrate), Section B; format: biochemical
T1 construct: Recombinant E. coli or Baculovirus full-length NS3 was diluted to 3.33 μM with assay buffer; made in house; host or cells: E. coli or baculovirus (BV) system
T1 sequence (P27958 1027-1657): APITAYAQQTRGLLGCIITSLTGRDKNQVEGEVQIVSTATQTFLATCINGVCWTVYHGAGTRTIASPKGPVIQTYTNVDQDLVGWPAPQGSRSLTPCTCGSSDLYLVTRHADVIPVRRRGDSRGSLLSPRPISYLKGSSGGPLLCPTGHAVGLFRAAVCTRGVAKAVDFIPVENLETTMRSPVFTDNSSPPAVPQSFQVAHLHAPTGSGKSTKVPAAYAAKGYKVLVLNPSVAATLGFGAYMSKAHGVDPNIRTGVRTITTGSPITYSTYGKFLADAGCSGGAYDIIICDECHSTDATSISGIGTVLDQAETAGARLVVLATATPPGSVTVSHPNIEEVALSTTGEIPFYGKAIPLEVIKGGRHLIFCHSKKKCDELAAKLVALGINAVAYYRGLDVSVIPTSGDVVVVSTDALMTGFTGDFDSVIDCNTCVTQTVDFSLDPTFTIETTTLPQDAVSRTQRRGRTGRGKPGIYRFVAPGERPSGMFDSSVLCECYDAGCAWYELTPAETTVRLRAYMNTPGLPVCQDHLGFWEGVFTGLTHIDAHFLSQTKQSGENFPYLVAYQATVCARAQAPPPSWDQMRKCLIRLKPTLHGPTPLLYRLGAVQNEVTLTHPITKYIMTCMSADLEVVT
Outline: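 Kinetic fluorescence read (335 nm excitation, 495 nm emission, 30 min) of RETS1 cleavage by NS3/NS4A-2 complex, 2 nM E. coli or 3 nM baculovirus NS3, after 10 min room-temperature compound pre-incubation. Four-parameter-fit IC50s converted to Ki by Cheng–Prusoff, Ki=IC50/(1+[S]/Km).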

[1] = system: HCV sub-genomic replicon, GS4.3; assay: Quantitation by ELISA of NPTII in the HCV sub-genomic replicon, GS4.3, Section B; format: cell-based; conditions: Hepatitis C virus, read-out: Replicon EC50
Outline: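 NPTII marker protein in lysates was quantified by ELISA read at 450 nm after 72 h inhibitor exposure (3-fold series, final DMSO 1%, G418-free medium) of HuH-7 cells stably harbouring the subgenomic HCV replicon. Values relative to DMSO-treated controls; 4-parameter curves gave EC50.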

| Compound | IC50 (NS3-NS4A protease; read-out: NS3-NS4A IC50) [µM] | EC50 ([1]; GS4.3 cells, 72 h incubation) [µM] | IC50 (NS3-NS4A protease) [µM] | EC50 ([1]; 72 h) [µM] |
| --- | --- | --- | --- | --- |
| CC(C)(C)OC(=O)N[C@H]1CCCCC/C=C\[C@@H]2C[C@@]2(C(=O)NS(=O)(=O)c2ccc(Cl)s2)NC(=O)[C@@H]2C[C@@H](OC(=O)N3Cc4ccccc4C3)CN2C1=O [AR00334188, (1S,4R,6S,14S,18R)-1,3-Dihydro-isoindole-2-carboxylic acid 14-tert-butoxycarbonylamino-4-(5-chloro-thiophene-2-sulfonylaminocarbonyl)-2,15-dioxo-3,16-diaza-tricyclo[14.3.0.0^4,6]nonadec-7-en-18-yl ester] | < 0.1 | < 1 |  |  |
| CC(C)(C)OC(=O)N[C@H]1CCCCC/C=C\[C@@H]2C[C@@]2(C(=O)O)NC(=O)[C@@H]2C[C@@H](OC(=O)N3CCc4cc(F)ccc4C3)CN2C1=O [AR00304063, (1S,4R,6S,14S,18R)-14-tert-Butoxycarbonylamino-18-(6-fluoro-3,4-dihydro-1H-isoquinoline-2-carbonyloxy)-2,15-dioxo-3,16-diaza-tricyclo[14.3.0.0^4,6]nonadec-7-ene-4-carboxylic acid] | < 1 | < 10 |  |  |
| CC(C)(C)OC(=O)N[C@H]1CCCCC/C=C\[C@@H]2C[C@@]2(C(=O)NS(=O)(=O)C(F)(F)F)NC(=O)[C@@H]2C[C@@H](OC(=O)N3Cc4ccccc4C3)CN2C1=O [AR00340479, (1S,4R,6S,14S,18R)-1,3-Dihydro-isoindole-2-carboxylic acid 14-tert-butoxycarbonylamino-2,15-dioxo-4-trifluoromethanesulfonylaminocarbonyl-3,16-diaza-tricyclo[14.3.0.0^4,6]nonadec-7-en-18-yl ester] | < 0.1 | < 0.1 |  |  |
| COCC1c2ccc(OC)cc2CCN1C(=O)O[C@@H]1C[C@H]2C(=O)N[C@]3(C(=O)O)C[C@H]3/C=C\CCCCC[C@H](NC(=O)OC(C)(C)C)C(=O)N2C1 (stereo partly drawn) [AR00333842, (1S,4R,6S,14S,18R)-14-tert-Butoxycarbonylamino-18-(6-methoxy-1-methoxymethyl-3,4-dihydro-1H-isoquinoline-2-carbonyloxy)-2,15-dioxo-3,16-diaza-tricyclo[14.3.0.0^4,6]nonadec-7-ene-4-carboxylic acid] | < 1 | < 10 |  |  |
| CN1CCN(c2ccc3c(c2)CN(C(=O)O[C@@H]2C[C@H]4C(=O)N[C@]5(C(=O)NS(=O)(=O)C6CC6)C[C@H]5/C=C\CCCCC[C@H](NC(=O)OC(C)(C)C)C(=O)N4C2)C3)CC1 [AR00340495, (1S,4R,6S,14S,18R)-5-(4-Methyl-piperazin-1-yl)-1,3-dihydro-isoindole-2-carboxylic acid 14-tert-butoxycarbonylamino-4-cyclopropanesulfonylaminocarbonyl-2,15-dioxo-3,16-diaza-tricyclo[14.3.0.0^4,6]nonadec-7-en-18-yl ester] | < 0.1 | < 0.1 |  |  |
| O=C(N[C@H]1CCCCC/C=C\[C@@H]2C[C@@]2(C(=O)NS(=O)(=O)C2CC2)NC(=O)[C@@H]2C[C@@H](OC(=O)N3CCc4ccccc4C3)CN2C1=O)OCCF [AR00304161, (1S,4R,6S,14S,18R)-3,4-Dihydro-1H-isoquinoline-2-carboxylic acid 4-cyclopropanesulfonylaminocarbonyl-14-(2-fluoro-ethoxycarbonylamino)-2,15-dioxo-3,16-diaza-tricyclo[14.3.0.0^4,6]nonadec-7-en-18-yl ester] | < 0.1 | < 0.1 |  |  |
| COc1ccc(CC(=O)N[C@H]2CCCCC/C=C\[C@@H]3C[C@@]3(C(=O)NS(=O)(=O)C3CC3)NC(=O)[C@@H]3C[C@@H](OC(=O)N4Cc5cccc(F)c5C4)CN3C2=O)cc1 [AR00340156, (1S,4R,6S,14S,18R)-4-Fluoro-1,3-dihydro-isoindole-2-carboxylic acid 4-cyclopropanesulfonylaminocarbonyl-14-[2-(4-methoxy-phenyl)-acetylamino]-2,15-dioxo-3,16-diaza-tricyclo[14.3.0.0^4,6]nonadec-7-en-18-yl ester] | < 0.1 | < 1 |  |  |
| CC(C)[C@@H](NC(=O)c1cccnc1)C(=O)N[C@H]1CCCCC/C=C\[C@@H]2C[C@@]2(C(=O)O)NC(=O)[C@@H]2C[C@@H](OC(=O)N3CCc4ccccc4C3)CN2C1=O [AR00304073, (1S,4R,6S,14S,18R)-18-(3,4-Dihydro-1H-isoquinoline-2-carbonyloxy)-14-{3-methyl-2-[(pyridine-3-carbonyl)-amino]-butyrylamino}-2,15-dioxo-3,16-diaza-tricyclo[14.3.0.0^4,6]nonadec-7-ene-4-carboxylic acid] |  |  | < 1 | < 10 |
| CC(C)(C)OC(=O)N[C@H]1CCCCC/C=C\[C@@H]2C[C@@]2(C(=O)NS(=O)(=O)C2CC2)NC(=O)[C@@H]2C[C@@H](OC(=O)N3CCc4ccc(Cl)cc4C3)CN2C1=O [AR00301746, (1S,4R,6S,14S,18R)-7-Chloro-3,4-dihydro-1H-isoquinoline-2-carboxylic acid 14-tert-butoxycarbonylamino-4-cyclopropanesulfonylaminocarbonyl-2,15-dioxo-3,16-diaza-tricyclo[14.3.0.0^4,6]nonadec-7-en-18-yl ester] | < 0.1 | < 0.1 |  |  |
| O=C(NC1CCCC1)N[C@H]1CCCCC/C=C\[C@@H]2C[C@@]2(C(=O)NS(=O)(=O)C2CC2)NC(=O)[C@@H]2C[C@@H](OC(=O)N3CCc4c(F)cccc4C3)CN2C1=O [AR00304080, (1S,4R,6S,14S,18R)-5-Fluoro-3,4-dihydro-1H-isoquinoline-2-carboxylic acid 14-(3-cyclopentyl-ureido)-4-cyclopropanesulfonylaminocarbonyl-2,15-dioxo-3,16-diaza-tricyclo[14.3.0.0^4,6]nonadec-7-en-18-yl ester] | < 0.1 | < 0.1 |  |  |
| O=C(N[C@H]1CCCCC/C=C\[C@@H]2C[C@@]2(C(=O)O)NC(=O)[C@@H]2C[C@@H](OC(=O)N3Cc4ccccc4C3)CN2C1=O)O[C@@H]1CCOC1 [AR00320074, (1S,4R,6S,14S,18R)-18-(1,3-Dihydro-isoindole-2-carbonyloxy)-2,15-dioxo-14-(tetrahydro-furan-3R-yloxycarbonylamino)-3,16-diaza-tricyclo[14.3.0.0^4,6]nonadec-7-ene-4-carboxylic acid] | < 0.1 | < 10 |  |  |
| O=C(N[C@H]1CCCCC/C=C\[C@@H]2C[C@@]2(C(=O)O)NC(=O)[C@@H]2C[C@@H](OC(=O)N3Cc4ccccc4C3)CN2C1=O)OCCF [AR00320076, (1S,4R,6S,14S,18R)-18-(1,3-Dihydro-isoindole-2-carbonyloxy)-2,15-dioxo-14-(2-fluoro-ethoxycarbonylamino)-3,16-diaza-tricyclo[14.3.0.0^4,6]nonadec-7-ene-4-carboxylic acid] | < 1 | < 10 |  |  |
| CC(C)(C)OC(=O)N[C@H]1CCCCC/C=C\[C@@H]2C[C@@]2(C(=O)O)NC(=O)[C@@H]2C[C@@H](OC(=O)N3Cc4ccccc4C3)CN2C1=O [AR00291871, (1S,4R,6S,14S,18R)-14-tert-Butoxycarbonylamino-18-(1,3-dihydro-isoindole-2-carbonyloxy)-2,15-dioxo-3,16-diaza-tricyclo[14.3.0.0^4,6]nonadec-7-ene-4-carboxylic acid] | < 0.1 | < 1 |  |  |
| CC(C)(C)OC(=O)N[C@H]1CCCCC/C=C\[C@@H]2C[C@@]2(C(=O)NS(=O)(=O)C2CC2)NC(=O)[C@@H]2C[C@@H](OC(=O)N3CCc4cc(F)ccc4C3)CN2C1=O [AR00301751, (1S,4R,6S,14S,18R)-6-Fluoro-3,4-dihydro-1H-isoquinoline-2-carboxylic acid 14-tert-butoxycarbonylamino-4-cyclopropanesulfonylaminocarbonyl-2,15-dioxo-3,16-diaza-tricyclo[14.3.0.0^4,6]nonadec-7-en-18-yl ester] | < 0.1 | < 0.1 |  |  |
| CC(C)(C)OC(=O)N[C@H]1CCCCC/C=C\[C@@H]2C[C@@]2(C(=O)NS(=O)(=O)C2CC2)NC(=O)[C@@H]2C[C@@H](OC(=O)N3Cc4ccc(OCCN5CCOCC5)cc4C3)CN2C1=O [AR00345090, (1S,4R,6S,14S,18R)-5-(2-Morpholin-4-yl-ethoxy)-1,3-dihydro-isoindole-2-carboxylic acid 14-tert-butoxycarbonylamino-4-cyclopropanesulfonylaminocarbonyl-2,15-dioxo-3,16-diaza-tricyclo[14.3.0.0^4,6]nonadec-7-en-18-yl ester] | < 0.1 | < 0.1 |  |  |
| CC(OC(=O)N[C@H]1CCCCC/C=C\[C@@H]2C[C@@]2(C(=O)NS(=O)(=O)C2CC2)NC(=O)[C@@H]2C[C@@H](OC(=O)N3CCc4ccccc4C3)CN2C1=O)C(F)(F)F (stereo partly drawn) [AR00320581, (1S,4R,6S,14S,18R)-3,4-Dihydro-1H-isoquinoline-2-carboxylic acid 4-cyclopropanesulfonylaminocarbonyl-2,15-dioxo-14-(2,2,2-trifluoro-1-methyl-ethoxycarbonylamino)-3,16-diaza-tricyclo[14.3.0.0^4,6]nonadec-7-en-18-yl ester] | < 0.1 | < 0.1 |  |  |
| O=C(N[C@H]1CCCCC/C=C\[C@@H]2C[C@@]2(C(=O)NS(=O)(=O)C2CC2)NC(=O)[C@@H]2C[C@@H](OC(=O)N3CCc4ccccc4C3)CN2C1=O)OC(CF)CF [AR00320580, (1S,4R,6S,14S,18R)-3,4-Dihydro-1H-isoquinoline-2-carboxylic acid 4-cyclopropanesulfonylaminocarbonyl-14-(2-fluoro-1-fluoromethyl-ethoxycarbonylamino)-2,15-dioxo-3,16-diaza-tricyclo[14.3.0.0^4,6]nonadec-7-en-18-yl ester] | < 0.1 | < 0.1 |  |  |
